Laboratory results reported in patent US20250230138A1, “COMPOUNDS HAVING A T-STRUCTURE FORMED BY AT LEAST FOUR CYCLES FOR USE IN THE TREATMENT OF CANCER AND OTHER INDICATIONS” (TheRas, Inc., priority 2022, published 2025).
Like-named read-outs stand apart in the source and are kept apart here.

Key:
[1] = test system: pAKT in BT474 cells; assay: Cell-based pAKT HTRF assay in BT474 cells; settings: BT474 cells, 4 hr incubation, read-out: pAKT inhibition IC50 in BT474 cells
Procedure: On Day 1, cells were seeded into 96-well plates at 2.5×10^4 cells/well in complete growth media (DMEM, 10% FBS). On Day 2, cells were treated with compounds at 0.25% DMSO. The source plate was created with compounds diluted in media at 5-fold the final assay concentration. The compounds are run in a 9-point concentration curve starting at 3 μM, with a 3-fold dilution between concentrations. 20 μL was transferred onto the cell plates (final volume in wells was 100 μL). Plates were harvested after 4 hr incubation by aspirating media and adding kit-supplied 1× supplemented lysis buffer to all wells (75 μL per well). Plates were then placed on a plate shaker and incubated at 850 rpm for an additional 30 min. The antibody mixture solution was prepared by diluting aliquoted d2 and Eu Cryptate antibodies 1:20 in kit supplied detection buffer, then mixed the diluted antibodies solutions (1:1 v:v). 4 μL of this solution was then added to a 384-well detection plate (Perkin Elmer; 6008230). Samples were homogenized by pipetting up and down and then transferred (16 μL of cell lysates) from the 96-well cell culture plate to two wells of the HTRF 384-well detection plate containing the antibody solution. Plates were centrifuged (524 g for 1 min) and allowed to incubate between 4 and 24 h at room temperature. The maximum signal is reached after 4 h incubation time and remains stable over a period of 24 hours. Therefore, readings can be made between 4 and 24 h of incubation. Plates were centrifuged again (524 g for 1 m), and analyzed on the EnVision plate reader using the following settings: Excitation 320 nm, Bandwidth […]; Emission 615 nm, Bandwidth […], Gain 10000, Flashes 100, Lag 60 μs.

[2] = target: Cys242 in human PIK3CA (157-299) (Homo sapiens (Human), UniProt P42336); assay: Covalent modification assay using MALDI-TOF MS; assay type: biochemical; settings: 4 h reaction time point
Sequence of Cys242 in human PIK3CA (157-299) (P42336 157-299): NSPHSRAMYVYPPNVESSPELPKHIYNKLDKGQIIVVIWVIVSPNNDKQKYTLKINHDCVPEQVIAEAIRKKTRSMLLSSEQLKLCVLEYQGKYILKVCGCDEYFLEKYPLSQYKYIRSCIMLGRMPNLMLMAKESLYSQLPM
Procedure: Matrix-Assisted Laser Desorption Ionization-Time of Flight Mass Spectrometry (MALDI-TOF MS) analysis of covalent modification of Cys242 in human PIK3CA (157-299) was performed.
Reaction: 3.33 μM or 1 μM of PIK3CA (157-299) protein (produced in-house by Protein Expression Laboratory, FNLCR/Leidos Biomed) in 20 mM HEPES buffer containing 150 mM NaCl, 2 mM MgCl2, pH 7.3 was prepared freshly before assay. Twelve-μL aliquots of protein were dispensed onto low volume 384-well plate, then 470 nL DMSO and 30 nL of tested compounds from 10 mM DMSO stocks were added to appropriate wells using ECHO 555 acoustic liquid handler (Labcyte Inc.). For each reaction/assay, three blanks were prepared by mixing 12 μL of protein solution with 500 nL DMSO. The wells content was carefully mixed by aspiration, and then the plate was sealed by an adhesive cover, centrifuged at 931 g for 1 minute, and kept in the dark at room temperature until 15 min, 30 min, 2 h, or 4 h collections.
Targetpretreatment: Before each assay MALDI target (Bruker MPT 384 ground steel BC) was pre-treated by pipetting on each spot 0.75 μL of saturated sinapinic acid in acetonitrile (ACN).
Sample preparation: At collection time point, 2 μL of reaction mixtures were pipetted out into […] MALDI matrix solution (saturated solution of sinapinic acid in 1:1 ACN:water solution containing 0.15% trifluoroacetic acid (TFA)) deposited on 384 well polypropylene plate. The resulting solution was mixed by aspiration, centrifuged at 931 g for 1 minute, then 1.5 μL aliquots were dispensed on pre-treated MALDI target using Beckman Coulter Biomek FX^P 96/384-Span-8 Laboratory Automation Workstation. Finally, the MALDI target was dried under a mild vacuum to produce spots with a fine crystalline structure.
Measurements: MALDI-TOF measurements were performed on Bruker Daltonics rapifleX Tissuetyper TOF-TOF mass spectrometer using linear mode and mass ranging from 16.0 to 19.6 kDa. Detector gain was set to 0.64×(459 V), sample rate to 5 GS/s, real-time smoothing to medium (175 MHz), laser smart beam pattern was set to “Custom” single smartbeam beam scan with a scan range of 40 μm on both X and Y axis, and the laser frequency was 10000 Hz. Spectra were automatically collected using the custom AutoXecute method. Laser power was auto adjusted using fuzzy control. The peak selection range was set to be between 16.0 and 18.5 kDa. Peak evaluation uses a half-width parameter set to be smaller than 40 Da for processed spectrograms (centroid peak detection; smoothed by SavitzkyGolay algorithm using 7 m/z width and 2 cycles; baseline was subtracted using a median algorithm with flatness 1 and median level 0). Fuzzy control used Proteins/Oligonucleotides protocol with minimum half-width 1/10 times above threshold. Up to 40000 satisfactory shots were collected in 10000 short steps. Dynamic termination was implemented to finish data collection when the peak signal/noise ratio was reaching a value of 1000.
Spectra processing: Spectra were smoothed by SavitzkyGolay algorithm using 7 m/z width and three cycles. Centroid peak detection algorithm was used with signal to noise threshold set to 6, relative intensity threshold 3%, peak width 10 m/z, and median baseline subtraction using flatness of 1 and the median level of 0.1. Peak intensity and area under the peak were evaluated and recorded for all peaks between 16.0 and 19.5 kDa.
Calculation of percent modification: Percent modification was calculated as a ratio of peak height for protein modified by compound to the sum of the peak height of remaining protein plus peak height for protein modified by a compound. If multiple modifications were observed each was calculated as a ratio of peak height for given modification versus the sum of peak heights for all observed protein species.

[3] = 3.33 μM protein target, 1:7.5 protein to compound ratio (compounds 1-852)
[4] = 1 μM protein target, 1:5 protein to compound ratio (compounds 853-1279)

SMILES | IC50 ([1]; Compounds 10-999) | % of modification [2, 3] | % of modification [2, 4] | IC50 ([1]; Compounds 1000-1279)
C=CC(=O)N1CCn2nc(-c3nc(-c4ccc5nn(C)cc5c4)c4ccsc4c3-c3c(F)cc(F)cc3OC[C@@H](C)O)cc2[C@@H]1C [Compound 646] | < 100 nM | A (percent of modification of PIK3CA protein ≥75%) | – | –
C=CC(=O)N1CCn2nc(-c3nc(-c4ccc(CN(C)C)cc4)c4ccsc4c3-c3c(F)cc(F)cc3OCCOC)cc2C1C (stereo not drawn) [Compound 991] | < 100 nM | – | A (percent of modification of PIK3CA protein ≥75%) | –
C=CC(=O)N1CCn2nc(-c3nc(-c4ccc5c(c4)CN(CC(F)(F)F)CC5)c4ccsc4c3-c3c(F)cc(F)cc3OCCO)cc2C1C (stereo not drawn) [Compound 1250] | – | – | A (percent of modification of PIK3CA protein ≥75%) | < 100 nM
C=CC(=O)N1CCn2nc(-c3nc(-c4cnn(C)c4)c4ccsc4c3-c3c(F)cc(F)cc3OCCO)cc2C1C (stereo not drawn) [Compound 532] | < 100 nM | A (percent of modification of PIK3CA protein ≥75%) | – | –
C=CC(=O)N1Cc2cc(-c3nc(-c4ccc5c(c4)CCN(C)C5)c4ccsc4c3-c3c(F)cc(F)cc3OCCOC)nn2C(C)C1 (stereo not drawn) [Compound 558] | 100 to 1000 nM | D (percent of modification <25%) | – | –
C=CC(=O)N1CCn2nc(-c3nc(-c4ccc5c(c4)CCN(C)C5)c4ccsc4c3-c3c(F)cc(F)cc3OC(C)C)cc2[C@@H]1C [Compound 502] | < 100 nM | A (percent of modification of PIK3CA protein ≥75%) | – | –
C=CC(=O)N1CCn2nc(-c3nc(-c4ccc(C(=O)NC)cc4)c4ccsc4c3-c3c(F)cc(F)cc3OCCOC)cc2C1C (stereo not drawn) [Compound 1103] | – | – | A (percent of modification of PIK3CA protein ≥75%) | < 100 nM
C=CC(=O)N1CCc2ncc(-c3nc(-c4ccc5c(c4)CNC5=O)c4ccsc4c3-c3c(F)cc(F)cc3OCCOC)cc2C1 [Compound 379] | < 100 nM | A (percent of modification of PIK3CA protein ≥75%) | – | –
C=C(F)C(=O)N1CCn2nc(-c3nc(-c4ccc5c(c4)CNC5=O)c4ccsc4c3-c3c(Cl)cccc3OC(C)C)cc2C1 [Compound 472] | 100 to 1000 nM | B (50%<percent of modification <75%) | – | –
C=CC(=O)N1Cc2cc(-c3nc(-c4cnc5c(c4)CNC(=O)C5)c4ccsc4c3-c3c(F)cc(F)cc3OCCOC)nn2[C@@H](C)C1 [Compound 515] | < 100 nM | A (percent of modification of PIK3CA protein ≥75%) | – | –
C=CC(=O)N1CCn2nc(-c3nc(-c4cnc(N(C)C)nc4)c4ccsc4c3-c3c(F)cc(F)cc3OCCOC)cc2C1C (stereo not drawn) [Compound 1037] | – | – | A (percent of modification of PIK3CA protein ≥75%) | < 100 nM
C=CC(=O)N1Cc2cc(-c3nc(-c4ccc5c(c4)CCN(C)C5)c4ccsc4c3-c3c(F)cc(F)cc3OCCO)nn2[C@@H](C)C1 [Compound 564] | 100 to 1000 nM | D (percent of modification <25%) | – | –
C=CC(=O)N1CCc2nc(-c3nc(-c4ccc(=O)n(C)c4)c4ccsc4c3-c3c(F)cc(F)cc3OC(C)C)sc2C1 [Compound 348] | < 100 nM | A (percent of modification of PIK3CA protein ≥75%) | – | –
C=CC(=O)N1CC(n2cc(-c3nc(N4CCN5CCCC5C4)c4ccsc4c3-c3ccc(F)cc3OCCOC)cn2)C1 (stereo not drawn) [Compound 123] | 100 to 1000 nM | A (percent of modification of PIK3CA protein ≥75%) | – | –
C=CC(=O)N1CCn2nc(-c3nc(-c4ccc5c(c4)c(C)nn5C)c4ccsc4c3-c3c(F)cc(F)cc3OCCO)cc2C1C (stereo not drawn) [Compound 1101] | – | – | A (percent of modification of PIK3CA protein ≥75%) | < 100 nM
C=CC(=O)N1Cc2cc(-c3nc(-c4cn(C)cn4)c4ccsc4c3-c3c(F)cc(F)cc3OCC(C)O)nn2C(C)C1 (stereo not drawn) [Compound 639] | < 100 nM | A (percent of modification of PIK3CA protein ≥75%) | – | –
C=CC(=O)N1CCn2nc(-c3nc(-c4ccc5c(c4)CCNC5)c4ccsc4c3-c3ccc(F)cc3OC(F)F)cc2C1 [Compound 222] | < 100 nM | A (percent of modification of PIK3CA protein ≥75%) | – | –
C=CC(=O)N1CCc2ncc(-c3nc(N4CCN(C(C)C)CC4)c4ccsc4c3-c3c(F)cc(F)cc3OC(C)C)cc2C1 [Compound 373] | 100 to 1000 nM | A (percent of modification of PIK3CA protein ≥75%) | – | –
C=CC(=O)N1CCn2nc(-c3nc(-c4ccc5c(c4)CN(C)C5=O)c4ccsc4c3-c3c(F)cc(F)cc3OCCOC)cc2[C@H]1C [Compound 539] | < 100 nM | A (percent of modification of PIK3CA protein ≥75%) | – | –
C=CC(=O)N1CCn2nc(-c3nc(-c4ccnc(N)c4)c4ccsc4c3-c3ccc(F)cc3OCCOC)nc2C1 [Compound 186] | < 100 nM | A (percent of modification of PIK3CA protein ≥75%) | – | –
C=CC(=O)N1CC(n2cc(-c3nc(-c4cnn(CC(F)F)c4)c4ccsc4c3-c3ccc(F)cc3OCCOC)cn2)C1 [Compound 232] | < 100 nM | A (percent of modification of PIK3CA protein ≥75%) | – | –
C=CC(=O)N1CCn2nc(-c3nc(-c4cnn(C)c4)c4ccsc4c3-c3c(F)cc(F)cc3OCC(C)O)cc2C1C (stereo not drawn) [Compound 551] | < 100 nM | A (percent of modification of PIK3CA protein ≥75%) | – | –
C=CC(=O)N1CCn2nc(-c3nc(-c4ccc5ncn(C)c(=O)c5c4)c4ccsc4c3-c3c(F)cc(F)cc3OCCOC)cc2C1C (stereo not drawn) [Compound 925] | < 100 nM | – | A (percent of modification of PIK3CA protein ≥75%) | –
C=CC(=O)N1CCn2nc(-c3nc(-c4ccc5c(c4)CCNC5)c4ccsc4c3-c3ccc(F)cc3OCC3CCNC(=O)C3)cc2C1 (stereo not drawn) [Compound 261] | < 100 nM | A (percent of modification of PIK3CA protein ≥75%) | – | –
C=CC(=O)N1CCn2nc(-c3nc(-c4ccc5c(c4)CCN(C)C5)c4ccsc4c3-c3ccc(F)cc3OCCOC)cc2C1 [Compound 242] | < 100 nM | A (percent of modification of PIK3CA protein ≥75%) | – | –
C=CC(=O)N1CCn2nc(-c3nc(-c4cccc(=O)n4C)c4ccsc4c3-c3c(F)cc(F)cc3OCCOC)cc2C1C (stereo not drawn) [Compound 1020] | – | – | A (percent of modification of PIK3CA protein ≥75%) | < 100 nM
C=CC(=O)N1CCn2nc(-c3nc(-c4ccc5c(cnn5C)c4)c4ccsc4c3-c3c(F)cc(F)cc3OCC(C)O)cc2C1C (stereo not drawn) [Compound 767] | < 100 nM | A (percent of modification of PIK3CA protein ≥75%) | – | –
